Experimental data from patent US20020006421A1, “Long-acting, chemical-resistant skin emollients, moisturizers, and strengtheners” (priority 1997, published 2002).

Assay: Reaction with N-acetylcysteamine (model for skin-bound sulfhydryl groups) in the presence of base, followed by 1H NMR
Details: for time after which the reaction was complete by NMR: 1 equivalent N-acetylcysteamine per crotonyl moiety, CDCl3
From the text: As a model for skin-bound sulfhydryl groups (—SH) of cysteine residues in skin proteins, the compound N-acetylcysteamine was allowed to react with OSM in the presence of a catalytic amount of the base 1,5-diazabicyclo[4.3.0]non-5-ene (DBN) in chloroform solution.
As a model for skin-bound sulfhydryl groups (—SH) of cysteine residues in skin proteins, the compound N-acetylcysteamine was allowed to react with OCM in the presence of a catalytic amount of the base 1,5-diazabicyclo[4.3.0]non-5-ene (DBN) in chloroform solution.
As a model for skin bound sulfhydryl groups (—SH) of cysteine residues in skin proteins, the compound N-acetylcysteamine was allowed to react with DCPEG in the presence of a catalytic amount of the base 1,5-diazabicyclo[4.3.0]non-5-ene (DBN) in chloroform solution.
A solution of octadecyl S-sorbyl-3 -mercaptopropionate (10.9 mg, 0.024 mmol) in 0.3 mL of CDCl3 was added to a solution of N-acetylcysteamine (5.2 μL, 0.048 mmol) and DBN (3.1 μL, 0.025 mmol) in 0.3 mL of CDCl3. The mixture was immediately transferred to an NMR tube and the first spectrum was recorded at time=0. The reaction solution was allowed to stand at room temperature in the NMR tube for two days, and the course of the reaction was monitored by periodically recording the ^1H NMR spectrum. A total often ^1H NMR experiments were performed at time=0, 0.25, 0.5, 1, 1.5, 4.5, 12, 20.5, 26, and 39 hours.
The time course of the reaction of OSM with 2 equiv of N-acetylcysteamine in the presence of 1 equiv of DBN in 0.6 mL of CDCl3 was studied by recording ^1H NMR spectra at various times for 39 hours. The signals of the olefinic protons due to the sorbate group of OSM (δ 6.2-6.0 and δ 7.2) and that of the newly formed C═C bond of the monoadducts (δ 5.6-5.2) were monitored in particular. In the course of these experiments, it was observed that the signals at δ 6.2-6.0 and δ 7.2 disappeared, while those at δ 5.6-5.2 appeared over the first 1.5 hours of the reaction, which indicated the formation of the monoadducts. The olefinic protons signals of the monoadducts started to fade away gradually after 1.5 hours and became very weak by approximately 39 hours. These spectra may imply the formation of the diadduct.
The reaction of OCM with N-acetylcysteamine was carried out at room temperature as follows: 22.0 mg of OCM was dissolved in 0.6 mL of CDCl3 and 5.7 μL of N-acetylcysteamine (1 equivalent) was added. […] Then a catalytic amount (0.1 equiv) of the base DBN was added, and the NMR spectrum was recorded immediately and again after 5 minutes. By 5 minutes, more than 60% of the OCM had reacted as judged by the diminished integration of the resonances at 6.9 ppm and 6.1 ppm due to the vinyl protons of the crotonyl moiety of OCM. […] A COSY spectrum confirmed that the expected product, shown earlier herein, had been formed. Nucleophilic attack by the sulfur atom of N-acetylcysteamine, presumably as the thiolate anion, at the β-position of the unsaturated thiol ester generated the expected covalent adduct. […]
The reaction of DCPEG with N-acetylcysteamine was followed by NMR: 35.6 mg of DCPEG was dissolved in 0.7 mL CDCl3 and the spectrum was recorded before and after addition of N-acetylcysteamine (1 equivalent per crotonyl moiety). […]

[1] = 2 equiv N-acetylcysteamine, 1 equiv DBN, CDCl3, room temperature

| Compound | time after which the reaction was complete by NMR (0.1 equiv DBN) [min] | OCM reacted, judged by diminished integration of the vinyl proton resonances (1 equivalent N-acetylcysteamine, 0.1 equiv DBN, CDCl3, room temperature, by 5 minutes) | time by which the monoadduct olefinic proton signals became very weak (may imply diadduct formation) [1] | time over which sorbate olefinic signals disappeared and monoadduct signals appeared [1] [h] |
| --- | --- | --- | --- | --- |
| C/C=C/C(=O)SCCC(=O)OCCCCCCCCCCCCCCCCCC [OCM, octadecyl S-crotonyl-3-mercaptopropionate] | 27 | more than 60% |  |  |
| C/C=C/C=C/C(=O)SCCC(=O)OCCCCCCCCCCCCCCCCCC [OSM, octadecyl S-sorbyl-3-mercaptopropionate] |  |  | approximately 39 hours | ≤ 1.5 |
| S,S′-dicrotonyl-α-thio-ω-mercapto[poly(ethylene glycol)] [DCPEG] | 5 |  |  |  |
